Assay results taken from patent US8399480B2, “Hydroxymethyl pyrrolidines as beta 3 adrenergic receptor agonists” (Merck Sharp & Dohme Corp., priority 2008, dated 2013).

Each compound was assayed against T1, human β3 adrenergic receptor (Homo sapiens, UniProt P13945) (assay: Functional assay: cAMP production (LANCE TR-FRET) in CHO cells stably transfected with cloned β3 adrenergic receptor). Conditions: Table 4; human β3 functional activity; read-out: Human β Binding.
T1 construct: expressed in transfected cells; host or cells: Chinese hamster ovary (CHO) cells, stably transfected
Format: cell-based
Procedure: Chinese hamster ovary (CHO) cells, stably transfected with the cloned β-adrenergic receptor (β1, β2 or β3) are harvested after 3 days of subculturing. Harvesting of cells is done with Enzyme-free Dissociation Media (Specialty Media). Cells are then counted and resuspended in assay buffer (Hank's Balanced salt solution supplemented with 5 mM HEPES, 0.1% BSA) containing a phosphodiesterase inhibitor (IBMX, 0.6 mM). The reaction is initiated by mixing 6,000 cells in 6 μL with 6 μL Alexa Fluor labeled cAMP antibody (LANCE™ kit) which is then added to an assay well containing 12 μL of compound (diluted in assay buffer to 2× final concentration). The reaction proceeds for 30 min at room temperature and is terminated by the addition of 24 μL detection buffer (LANCE™ kit). The assay plate is then incubated for 1 h at room temperature and time-resolved fluorescence measured on a Perkin Elmer Envision reader or equivalent. The unknown cAMP level is determined by comparing fluorescence levels to a cAMP standard curve.
The non-selective, full agonist β-adrenergic ligand isoproterenol is used at all three receptors to determine maximal stimulation. […] Data are analyzed using Microsoft Excel and Graphpad Prism or an internally developed data analysis software package.

T1 sequence (P13945 whole entry): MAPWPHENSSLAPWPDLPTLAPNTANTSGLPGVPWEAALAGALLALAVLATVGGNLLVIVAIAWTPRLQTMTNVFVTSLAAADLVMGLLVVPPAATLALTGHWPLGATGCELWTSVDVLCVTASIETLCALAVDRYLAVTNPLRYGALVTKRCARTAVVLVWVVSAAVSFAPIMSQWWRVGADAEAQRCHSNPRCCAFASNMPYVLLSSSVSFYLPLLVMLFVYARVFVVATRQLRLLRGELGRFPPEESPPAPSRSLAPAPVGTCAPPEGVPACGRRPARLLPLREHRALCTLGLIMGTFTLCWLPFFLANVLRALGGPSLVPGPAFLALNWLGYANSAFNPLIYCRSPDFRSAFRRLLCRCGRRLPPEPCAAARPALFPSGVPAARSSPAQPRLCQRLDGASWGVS

Compound	EC50 [nM]
O=C(Nc1ccc(C[C@@H]2CC[C@H]([C@H](O)c3ccccc3)N2)cc1)C1CCCN1c1nccs1 (stereo partly drawn) [Example 41]	1 to 10
O=C(Cn1cnc2sccc2c1=O)Nc1ccc(C[C@@H]2CC[C@H]([C@H](O)c3ccccc3)N2)cc1 [Example 55]	1 to 10
O=C(Cc1cccc(F)c1F)Nc1ccc(C[C@@H]2CC[C@H]([C@H](O)c3ccccc3)N2)cc1 [Example 72]	11 to 100
O=C(Nc1ccc(C[C@@H]2CC[C@H]([C@H](O)c3ccccc3)N2)cc1)C1CCCN1c1cc(Cl)cc(Cl)c1 (stereo partly drawn) [Example 35]	11 to 100
O=C(Cn1c(=O)ncc2ccccc21)Nc1ccc(C[C@@H]2CC[C@H]([C@H](O)c3ccccc3)N2)cc1 [Example 17]	1 to 10
O=C(Cc1nnc(-c2ccc(Cl)cc2)[nH]1)Nc1ccc(C[C@@H]2CC[C@H]([C@H](O)c3ccccc3)N2)cc1 [Example 23]	11 to 100
Cc1nc(C)c(CC(=O)Nc2ccc(C[C@@H]3CC[C@H]([C@H](O)c4ccccc4)N3)cc2)s1 [Example 9]	101 to 1000
Cc1cn(CC(=O)Nc2ccc(C[C@@H]3CC[C@H]([C@H](O)c4ccccc4)N3)cc2)c(=O)[nH]c1=O [Example 52]	1 to 10
COc1cccc(N2CCCC2C(=O)Nc2ccc(C[C@@H]3CC[C@H]([C@H](O)c4ccccc4)N3)cc2)c1 (stereo partly drawn) [Example 36]	1 to 10
O=C(CC1NC(=O)NC1=O)Nc1ccc(C[C@@H]2CC[C@H]([C@H](O)c3ccccc3)N2)cc1 (stereo partly drawn) [Example 69]	101 to 1000
O=C(Cc1ncccn1)Nc1ccc(C[C@@H]2CC[C@H]([C@H](O)c3ccccc3)N2)cc1 [Example 46]	11 to 100
O=C(Cn1[nH]c(=O)c2ccccc2c1=O)Nc1ccc(C[C@@H]2CC[C@H]([C@H](O)c3ccccc3)N2)cc1 [Example 53]	1 to 10
O=C(Cn1cccnc1=O)Nc1ccc(C[C@@H]2CC[C@H]([C@H](O)c3ccccc3)N2)cc1 [Example 64]	1 to 10
O=C(Cn1nc(Cl)ccc1=O)Nc1ccc(C[C@@H]2CC[C@H]([C@H](O)c3ccccc3)N2)cc1 [Example 51]	1 to 10
O=C(Cc1nnc(-c2cc(Cl)cc(Cl)c2)[nH]1)Nc1ccc(C[C@@H]2CC[C@H]([C@H](O)c3ccccc3)N2)cc1 [Example 26]	101 to 1000
O=C(Cc1cccnc1)Nc1ccc(C[C@@H]2CC[C@H]([C@H](O)c3ccccc3)N2)cc1 [Example 44]	101 to 1000
O=C(Nc1ccc(C[C@@H]2CC[C@H]([C@H](O)c3ccccc3)N2)cc1)c1ccccc1-c1ncc[nH]1 [Example 12]	11 to 100
O=C(CCc1nc(-c2ccccc2)no1)Nc1ccc(C[C@@H]2CC[C@H]([C@H](O)c3ccccc3)N2)cc1 [Example 47]	1 to 10
O=C(Cn1nc(Cc2ccccc2)c2ccccc2c1=O)Nc1ccc(C[C@@H]2CC[C@H]([C@H](O)c3ccccc3)N2)cc1 [Example 18]	1 to 10

Other lines, results leading:

EC50 [nM]	Compound
11 to 100	CC1=NN(CC(=O)Nc2ccc(C[C@@H]3CC[C@H]([C@H](O)c4ccccc4)N3)cc2)C(=O)C1 [Example 83]
11 to 100	O=C(CN1CCOC1=O)Nc1ccc(C[C@@H]2CC[C@H]([C@H](O)c3ccccc3)N2)cc1 [Example 90]

Same assay, conditions: Table 5; read-out: Human β3 Functional

EC50 [nM]	Compound
11 to 100	O=C(Nc1ccc(C[C@@H]2CC[C@H]([C@H](O)c3ccccc3)N2)cc1)C1CCCc2ccccc21 (single isomer, unassigned) [Example 112]
1 to 10	CC(C(=O)Nc1ccc(C[C@@H]2CC[C@H]([C@H](O)c3ccccc3)N2)cc1)c1nccs1 (single isomer, unassigned) [Example 201]
1 to 10	CC(C(=O)Nc1ccc(C[C@@H]2CC[C@H]([C@H](O)c3ccccc3)N2)cc1)c1nnc[nH]1 (single isomer, unassigned) [Example 168]
< 1	CC(C(=O)Nc1ccc(C[C@@H]2CC[C@H]([C@H](O)c3ccccc3)N2)cc1)c1nccs1 (single isomer, unassigned) [Example 200]
11 to 100	CC(C(=O)Nc1ccc(C[C@@H]2CC[C@H]([C@H](O)c3ccccc3)N2)cc1)N1CCOC1=O (single isomer, unassigned) [Example 209]
1 to 10	CC(C(=O)Nc1ccc(C[C@@H]2CC[C@H]([C@H](O)c3ccccc3)N2)cc1)n1ccnn1 (single isomer, unassigned) [Example 183]
11 to 100	O=C(Nc1ccc(C[C@@H]2CC[C@H]([C@H](O)c3ccccc3)N2)cc1)C1CCc2ncnn21 (single isomer, unassigned) [Example 129]
1 to 10	O=C(Nc1ccc(C[C@@H]2CC[C@H]([C@H](O)c3ccccc3)N2)cc1)C1CCn2nnnc21 (single isomer, unassigned) [Example 130]
1000 to 3000	O=C(Nc1ccc(C[C@@H]2CC[C@H]([C@H](O)c3ccccc3)N2)cc1)C1CCc2ccccc2C1 (single isomer, unassigned) [Example 109]
1 to 10	Cc1nnc2n1CCC2C(=O)Nc1ccc(C[C@@H]2CC[C@H]([C@H](O)c3ccccc3)N2)cc1 (single isomer, unassigned) [Example 125]
1 to 10	CCC(C(=O)Nc1ccc(C[C@@H]2CC[C@H]([C@H](O)c3ccccc3)N2)cc1)n1cccn1 (single isomer, unassigned) [Example 218]
1 to 10	CC(C(=O)Nc1ccc(C[C@@H]2CC[C@H]([C@H](O)c3ccccc3)N2)cc1)n1cccn1 (single isomer, unassigned) [Example 181]
101 to 1000	Cc1nnc2n1C(C(=O)Nc1ccc(C[C@@H]3CC[C@H]([C@H](O)c4ccccc4)N3)cc1)CC2 (single isomer, unassigned) [Example 127]

Same assay, conditions: Table 6; read-out: Human β3 Functional

EC50 [nM]	Compound
1000 to 3000	Nc1nc2c(s1)CCCC2C(=O)Nc1ccc(CC2CCC(C(O)c3ccccc3)N2)cc1 (single isomer, unassigned) [Example 228]

Same assay, conditions: Table 7; β3AR-cAMP; read-out: Human β3 Functional

EC50 [nM]	Compound
1000 to 3000	Cc1nn(C)c(Cl)c1S(=O)(=O)Nc1ccc(C[C@@H]2CC[C@H]([C@H](O)c3ccccc3)N2)cc1 [Example 247]

Same assay, conditions: Table 8; read-out: Human β3 Functional

EC50 [nM]	Compound
101 to 1000	O=C(Nc1ccc(C[C@@H]2CC[C@H]([C@H](O)c3ccccc3)N2)cc1)N1CCc2cccnc21 [Example 257]

Same assay, conditions: Table 9; read-out: Human β^3 Functional

EC50 [nM]	Compound
< 1	CC(NC(=O)c1cc[nH]n1)C(=O)Nc1ccc(C[C@@H]2CC[C@H]([C@H](O)c3ccccc3)N2)cc1 (stereo partly drawn) [Example 271]

Same assay, conditions: Table 10; β3AR-cAMP; read-out: Human β3 Functional

EC50 [nM]	Compound
< 1	O=C(Nc1ccc(CC2CCC(C(O)c3cccc(F)c3)N2)cc1)C1CCc2scnc21 (stereo not drawn) [Example 279]

Same assay, conditions: given as a range; cAMP, CHO cells; read-out: human β3 functional activity

EC50 [nM]	Compound
11 to 100	CC(C(=O)Nc1ccc(C[C@@H]2CC[C@H]([C@H](O)c3cccc(F)c3)N2)cc1)c1cscn1 (single isomer, unassigned) [Example 274]
101 to 1000	Nc1nc(CC(=O)Nc2ccc(C[C@H]3CC[C@H]([C@H](O)c4ccccc4)N3)cc2Br)cs1 [Example 313, 2-(2-Amino-1,3-thiazol-4-yl)-N-[2-bromo-4-({(2R,5R)-5-[(R)-hydroxy(phenyl)methyl]pyrrolidin-2-yl}methyl)phenyl]acetamide]

Same assay, conditions: human β3 functional activity, shown as ranges; Table 13; read-out: Human β3 Functional

EC50 [nM]	Compound
11 to 100	O=C(Nc1ccc(CC2CCC(C(O)c3cccc(Cl)c3)N2)cc1)C1CCc2sc(F)nc21 (single isomer, unassigned) [Example 301]
11 to 100	O=C(Cn1ncccc1=O)Nc1ccc(C[C@@H]2CC[C@H]([C@H](O)c3cccc(Cl)c3)N2)cc1 [Example 305]
< 1	Nc1nc2c(s1)CCC2C(=O)Nc1ccc(CC2CCC(C(O)c3cccc(Cl)c3)N2)cc1 (single isomer, unassigned) [Example 295]
1 to 10	CC(C(=O)Nc1ccc(CC2CCC(C(O)c3cccc(Cl)c3)N2)cc1)c1cscn1 (single isomer, unassigned) [Example 302]
